In PMC4928094, “The first characterization of multidrug and toxin extrusion (MATE/SLC47) proteins in zebrafish (Danio rerio)” (Scientific Reports, 2016):

Legend:
[1] = target: T1, zebrafish Mate3 (Danio rerio, UniProt A1L1P9); assay: DAPI inhibition assay, Mate3; assay type: cell-based; parameters: expressed in transfected cells; host or cells: HEK293T; conditions: Mate3; inhibition of DAPI (2.5 μM) uptake; n = 3; NE = no effect in the compound solubility range; read-out: IC50
T1 sequence (A1L1P9 1-590): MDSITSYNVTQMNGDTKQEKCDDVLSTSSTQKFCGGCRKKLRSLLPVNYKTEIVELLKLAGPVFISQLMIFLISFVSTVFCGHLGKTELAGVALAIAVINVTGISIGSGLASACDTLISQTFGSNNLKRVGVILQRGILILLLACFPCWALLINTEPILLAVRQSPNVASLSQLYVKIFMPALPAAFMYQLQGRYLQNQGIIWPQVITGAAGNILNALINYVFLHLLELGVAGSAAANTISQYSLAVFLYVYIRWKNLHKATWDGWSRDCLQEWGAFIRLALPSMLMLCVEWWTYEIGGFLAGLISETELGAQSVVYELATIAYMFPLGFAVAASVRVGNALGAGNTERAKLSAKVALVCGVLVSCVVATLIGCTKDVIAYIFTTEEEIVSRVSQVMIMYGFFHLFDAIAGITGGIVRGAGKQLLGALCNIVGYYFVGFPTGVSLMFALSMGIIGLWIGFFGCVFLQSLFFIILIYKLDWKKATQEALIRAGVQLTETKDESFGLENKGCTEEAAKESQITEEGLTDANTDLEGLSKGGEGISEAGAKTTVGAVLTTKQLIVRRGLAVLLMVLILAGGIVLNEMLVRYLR
Experimental: (§1) HEK293T cells were transiently transfected as described previously[31] using the PEI (polyethyleneimine) reagent in 48-well plates. Cells were in parallel transfected with pcDNA3.1/His/LacZ plasmid and transfection efficiency was evaluated 24 h after transfection with the LacZ staining protocol.
(§2) HEK293T cells overexpressing respective single zebrafish Mate transporter were used for further experiments. […] DAPI fluorescence was measured at 360 and 460 nm […], respectively. The uptake into vector-transfected HEK293T cells (mock cells) was subtracted to obtain transporter-specific uptake.
(§3) Inhibition assays using DAPI as a fluorescent substrate were performed in the same transport medium. […] Compounds tested for interaction were checked using at least four concentrations but only a representative concentration (with the highest response or the largest concentration in solubility range) is shown.
(§4) For the purpose of IC50 calculations, data were fitted to the sigmoidal four-parameter dose-response model (variable slope),

[2] = target: T2, zebrafish Mate7 (Danio rerio, UniProt U3PTD6); assay: DAPI inhibition assay, Mate7; assay type: cell-based; conditions: Mate7; inhibition of DAPI (2.5 μM) uptake; n = 3; NE = no effect in the compound solubility range; read-out: IC50
Experimental: as §1, §2, §3, §4

[3] = target: T3, zebrafish Mate4 (Danio rerio, UniProt U3Q0C3); assay: DAPI inhibition assay, Mate4; assay type: cell-based; conditions: Mate4; inhibition of DAPI (1 μM) uptake; n = 3; NE = no effect in the compound solubility range; read-out: IC50
Experimental: as §1, §2, §3, §4

[4] = target: T4, zebrafish Mate6 (Danio rerio, UniProt A1L2E7); assay: DAPI inhibition assay, Mate6; assay type: cell-based; conditions: Mate6; inhibition of DAPI (1 μM) uptake; n = 3; NE = no effect in the compound solubility range; read-out: IC50
Experimental: as §1, §2, §3, §4

[5] = system: human MATE1; conditions: human MATE1 ref 18; cited from earlier work
[6] = target: T5, zebrafish Mate8 (Danio rerio, UniProt A0A8M6YZ09); assay: DAPI inhibition assay, Mate8; assay type: cell-based; conditions: Mate8
Experimental: as §1, §2, §3, §4

[7] = target: T1, zebrafish Mate3; assay: Uptake of fluorescent dyes by HEK293T cells overexpressing zebrafish Mate3; conditions: dye uptake, mean ± SD; for Km: triplicate, representative experiment
Experimental: as §1
(§5) HEK293T cells overexpressing respective single zebrafish Mate transporter were used for further experiments. Cell uptake of all substrates except DAPI was measured in sodium based transport medium (145 mM NaCl, 3 mM KCl, 1 mM CaCl2, 0.5 mM MgCl2, 5 mM glucose and 10 mM Tris, pH 8.4). Briefly, after 5 minute incubation period, the cells were rapidly washed two times with ice-cold phosphate-buffered saline (PBS), lysed in 250 μL of 0.1% sodium dodecyl sulphate for 30 min and transferred to the black 96-well plates where fluorescence was measured using the microplate reader (Infinite M200, Tecan, Salzburg, Austria) at following excitation and emission wavelengths: ASP^+, 450/590 nm; EtBr, 535/590 nm; Rh123, 485/530 nm; berberine, 355/540 nm; amiloride, 366/418 nm. […] DAPI fluorescence was measured at 360 and 460 nm […], respectively. The uptake into vector-transfected HEK293T cells (mock cells) was subtracted to obtain transporter-specific uptake.
(§6) Calibration curves for all substrates were generated in 0.1% SDS and in the cell matrix dissolved in 0.1% SDS. […] Using the calibration curves, uptake was expressed as pmol of substrate per mg of protein per minute. Total cell protein content was determined according to the Bradford method.
(§7) All assays were performed in 3–5 independent experiments run in triplicates. Data shown on related figures represent mean ± standard errors (SE) or standard deviations (SD). All calculations were performed using GraphPad Prism 5.00 for Windows (GraphPad Software, San Diego, California, USA) as described below. The kinetic parameters, Km and Vmax values were calculated using the Michaelis-Menten equation,
where V is velocity (picomoles of substrate per milligram of proteins per minute), Vmax is maximal velocity, [S] is substrate concentration and Km is the Michaelis Menten constant. The uptake into vector-transfected HEK293 cells was subtracted to obtain transporter-specific uptake.

[8] = target: T5, zebrafish Mate8; assay: Uptake of fluorescent dyes by HEK293T cells overexpressing zebrafish Mate8; conditions: dye uptake, mean ± SD, NT = no transport found
Experimental: as §1, §5, §6
as §7, with “equation, […]” for “equation,”

[9] = target: T4, zebrafish Mate6; assay: Uptake of fluorescent dyes by HEK293T cells overexpressing zebrafish Mate6; conditions: dye uptake, mean ± SD
Experimental: as §1, §5, §6
as §7, with “equation, […]” for “equation,”

[10] = target: T3, zebrafish Mate4; assay: Uptake of fluorescent dyes by HEK293T cells overexpressing zebrafish Mate4; conditions: dye uptake, mean ± SD, NT = no transport found
Experimental: as §1, §5, §6
as §7, with “equation, […]” for “equation,”

[11] = target: T2, zebrafish Mate7; assay: Uptake of fluorescent dyes by HEK293T cells overexpressing zebrafish Mate7; conditions: dye uptake, mean ± SD
Experimental: as §1, §5, §6
as §7, with “equation, […]” for “equation,”

[12] = substrate: CN(C)c1ccc(/C=C/c2cc[n+](C)cc2)cc1; assay: cells, lysate or membranes; conditions: dye uptake, HEK293T, mean ± SD
Experimental: (§8) Calibration curves for all substrates were generated in 0.1% SDS and in the cell matrix dissolved in 0.1% SDS. Resulting linear calibration curves were the same in the SDS and in the dissolved cell matrix. Using the calibration curves, uptake was expressed as pmol of substrate per mg of protein per minute. Total cell protein content was determined according to the Bradford method[33].
(§9) All assays were performed in 3–5 independent experiments run in triplicates. […] All calculations were performed using GraphPad Prism 5.00 for Windows (GraphPad Software, San Diego, California, USA) as described below. The kinetic parameters, Km and Vmax values were calculated using the Michaelis-Menten equation,

[13] = substrate: N=C(N)NC(=O)c1nc(Cl)c(N)nc1N; assay: cells, lysate or membranes; conditions: dye uptake, HEK293T, mean ± SD
Experimental: as §8, §9

[14] = substrate: COC(=O)c1ccccc1-c1c2ccc(=N)cc-2oc2cc(N)ccc12; assay: cells, lysate or membranes; conditions: dye uptake, HEK293T, mean ± SD
Experimental: as §8, §9

[15] = substrate: COc1ccc2cc3[n+](cc2c1OC)CCc1cc2c(cc1-3)OCO2; assay: cells, lysate or membranes; conditions: dye uptake, HEK293T, mean ± SD
Experimental: as §8, §9

[16] = other: Mate3, triplicate, representative experiment

T3 sequence (U3Q0C3 entry or part of it): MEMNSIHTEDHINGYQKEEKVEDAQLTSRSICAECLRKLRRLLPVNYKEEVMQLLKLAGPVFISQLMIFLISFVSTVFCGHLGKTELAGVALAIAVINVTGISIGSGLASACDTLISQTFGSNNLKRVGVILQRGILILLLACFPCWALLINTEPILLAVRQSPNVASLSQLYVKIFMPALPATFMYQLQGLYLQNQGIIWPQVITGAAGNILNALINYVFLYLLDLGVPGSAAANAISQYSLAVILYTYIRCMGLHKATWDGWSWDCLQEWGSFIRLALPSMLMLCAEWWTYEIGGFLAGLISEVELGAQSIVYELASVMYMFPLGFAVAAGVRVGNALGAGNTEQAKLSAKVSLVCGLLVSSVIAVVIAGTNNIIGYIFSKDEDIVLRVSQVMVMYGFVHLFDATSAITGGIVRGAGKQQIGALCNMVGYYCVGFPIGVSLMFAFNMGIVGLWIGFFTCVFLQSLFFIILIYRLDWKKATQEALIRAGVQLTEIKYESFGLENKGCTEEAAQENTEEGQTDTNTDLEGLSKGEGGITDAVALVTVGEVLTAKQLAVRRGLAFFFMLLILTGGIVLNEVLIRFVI
T5 sequence (A0A8M6YZ09 entry or part of it): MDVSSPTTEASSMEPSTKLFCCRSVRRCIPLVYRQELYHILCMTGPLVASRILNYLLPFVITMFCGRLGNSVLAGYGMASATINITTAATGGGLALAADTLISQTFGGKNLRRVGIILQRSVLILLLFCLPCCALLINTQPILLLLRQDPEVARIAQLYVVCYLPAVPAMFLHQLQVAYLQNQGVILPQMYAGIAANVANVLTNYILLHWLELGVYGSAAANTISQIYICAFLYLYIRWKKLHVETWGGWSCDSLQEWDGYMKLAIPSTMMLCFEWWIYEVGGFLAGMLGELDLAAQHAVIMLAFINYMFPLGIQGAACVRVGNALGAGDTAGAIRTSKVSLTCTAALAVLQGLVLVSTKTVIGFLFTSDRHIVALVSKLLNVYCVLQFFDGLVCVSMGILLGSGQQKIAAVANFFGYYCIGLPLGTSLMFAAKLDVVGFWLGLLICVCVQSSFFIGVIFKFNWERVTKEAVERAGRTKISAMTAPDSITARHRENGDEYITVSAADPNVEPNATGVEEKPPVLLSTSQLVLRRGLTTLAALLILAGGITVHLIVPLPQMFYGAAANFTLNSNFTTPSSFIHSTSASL

With `C[n+]1ccc(-c2ccccc2)cc1` [MPP^+, 1-methyl-4-phenylpyridinium, reference compound] the IC50 [1] was 2430 µM, the IC50 [2] was 93.6 µM and the IC50 [3] was 434 µM. For the same molecule, the IC50 [4] was 27.9 µM, the Km [5] was 100 µM and the interaction strength ([6]; class by IC50 of DAPI uptake inhibition) was “weak (IC50 of 100–999 μM was classified as weak interaction)”. It also gave an IC50 ([6]; inhibition of DAPI (1 μM) uptake, n = 3, NE = no effect in the compound solubility range, read-out: IC50) of 978 µM.

`CC[n+]1c(-c2ccccc2)c2cc(N)ccc2c2ccc(N)cc21` [EtBr, ethidium bromide] showed a vmax [7] of 825 ± 25.5 pmol/mg protein/min and a Km [7] of 5.56 ± 0.5 µM.

With `COC(=O)c1ccccc1-c1c2ccc(=N)cc-2oc2cc(N)ccc12` [Rh123, rhodamine 123] the vmax [7] was 105 ± 5.16 pmol/mg protein/min, the vmax [8] was 12.3 ± 0.61 pmol/mg protein/min and the vmax [9] was 55.6 ± 1.48 pmol/mg protein/min. For the same molecule, the vmax [10] was 1.03 ± 0.03 pmol/mg protein/min and the vmax [11] was 4.79 ± 0.17 pmol/mg protein/min.

Molecule `N=C(N)c1ccc(-c2cc3ccc(C(=N)N)cc3[nH]2)cc1` [DAPI, 4′,6-diamidino-2-phenylindole] has a vmax [7] of 436 ± 21.8 pmol/mg protein/min, a Km [7] of 2.83 ± 0.34 µM and a Km [8] of 0.55 ± 0.07 µM. For the same molecule, the vmax [8] was 24.4 ± 0.70 pmol/mg protein/min, the Km [9] was 0.26 ± 0.05 µM and the vmax [9] was 44.3 ± 1.80 pmol/mg protein/min. The Km [10] was 0.29 ± 0.04 µM, the vmax [10] was 47.7 ± 2.27 pmol/mg protein/min and the Km [11] was 1.44 ± 0.19 µM. The vmax [11] was 193 ± 9.15 pmol/mg protein/min.

B1: zebrafish Mate7 (Danio rerio) (protein)
chain: MDVSSPGTDNLSMEPSAKLFCCGFMRRCIPLVYREELYHILRMTGPLLVCRFLNFLLFFVVTMFCGRLGNTVLAGYAMASATINVTAAATGLGLALACDTLVSQTFGSKNLLRVGIILQRGIVILTLFSLPCWALLVNTQPLLLYLGQEPEVARIAQLYVVVYLPAIPAMFLYQLQLSYLQNQGVIKPQMYASAVANVANVIANYFLLYWWDFGVYGSAAANTFAQVFNCFALFCFIRWQKLHEKTWGGWSLEALQDWGSYMKLAIPSTLMTCFEWWIYEVGGFLAGMLSEVDLAAQHVVIMLAYINYMIPLGMQGAACVRVGNALGAGETAAAILTSKVSLISAAVIAIIQGFVLGSTKTVIGYIFTSDESITELVSQLLNIYCPLQFFNGILCVGMGVLLGTGQQKIAAIANLFGYYCVGLPSSIVLMFTAGLQVAGFWLGLLIAVFLLAIFFTVAIFKLNWKKMTEEAIARTGKSANGAANGTMTTEFCSNHRNSFYQVVLNAENGNGYMVVSSQDQDERLNSTAVPEEPNVTGVEEKPPVLLSTTQLVLRRGLTTVAALLILAVGIIIHLTVPLPQVSYGAGANYTVDSNFTTANPIYSTSFI
For B1, the Km ([12]; other: Mate7) was 3.51 ± 0.27 µM, the Vmax ([12]; other: Mate7) was 52.3 ± 1.26 pmol/mg protein/min and the Km ([13]; other: Mate7) was 20.6 ± 4.20 µM. For the same molecule, the Vmax ([13]; other: Mate7) was 19.8 ± 1.84 pmol/mg protein/min, the Km ([14]; other: Mate7) was 0.22 ± 0.03 µM and the Km ([15]; other: Mate7) was 1.76 ± 0.38 µM. The Vmax ([15]; other: Mate7) was 28.0 ± 2.39 pmol/mg protein/min.

B2: zebrafish Mate3 (Danio rerio) (protein)
chain: MDSITSYNVTQMNGDTKQEKCDDVLSTSSTQKFCGGCRKKLRSLLPVNYKTEIVELLKLAGPVFISQLMIFLISFVSTVFCGHLGKTELAGVALAIAVINVTGISIGSGLASACDTLISQTFGSNNLKRVGVILQRGILILLLACFPCWALLINTEPILLAVRQSPNVASLSQLYVKIFMPALPAAFMYQLQGRYLQNQGIIWPQVITGAAGNILNALINYVFLHLLELGVAGSAAANTISQYSLAVFLYVYIRWKNLHKATWDGWSRDCLQEWGAFIRLALPSMLMLCVEWWTYEIGGFLAGLISETELGAQSVVYELATIAYMFPLGFAVAASVRVGNALGAGNTERAKLSAKVALVCGVLVSCVVATLIGCTKDVIAYIFTTEEEIVSRVSQVMIMYGFFHLFDAIAGITGGIVRGAGKQLLGALCNIVGYYFVGFPTGVSLMFALSMGIIGLWIGFFGCVFLQSLFFIILIYKLDWKKATQEALIRAGVQLTETKDESFGLENKGCTEEAAKESQITEEGLTDANTDLEGLSKGGEGISEAGAKTTVGAVLTTKQLIVRRGLAVLLMVLILAGGIVLNEMLVRYLR
Molecule B2 has a Km [12, 16] of 13.4 ± 1.55 µM, a Vmax [12, 16] of 296 ± 14.0 pmol/mg protein/min and a Km [13, 16] of 33.4 ± 4.57 µM. The Vmax [13, 16] was 53.1 ± 4.0 pmol/mg protein/min, the Km [14, 16] was 8.52 ± 1.25 µM and the Km [15, 16] was 14.4 ± 5.14 µM. For the same molecule, the Vmax [15, 16] was 242 ± 46.9 pmol/mg protein/min.

B3: zebrafish Mate6 (Danio rerio) (protein)
chain: MPEAGGPLANTEQITEATAPSSKLLGCSCVRRWVPLAYREELYHVLCLTGPLLISRILSFLLPFVTTIFCGHLGNAELAGYALASATVNVTTTATGCGLALACDTLVSQTFGSKNHKRVGEILQRSMLILLLFCLPCWAILINAESILLALKQEPEVARIAQLYVTAYLPAVPAMFLHYLQVSYLQNQGIILPQMYTAVAANILNVATNYILLHAMKLGVKGSAAANSISQITICLLLFAYIRWKKLHLKTWGGWSTASLQEWGSYMKLAIPSTLMLCFEWWIYEIGGFLAGMLGEVDLAAQHVLLEIGSIAYMFPLGVHAAACVRVGNALGAGDTVRALITSKVTLMISGILAFAQGIGIALTKSKLGYIFTSDESIVAIVSQNLTLYVFLQFFDALVCVCSGILLGAGKQKIAAVSNLICYYCIGLPVGISLMFLAELRILGLWLGLLICVIIQTCFFTTLIFKLDWKKVTEQAQKRAGKHAKVVCLPKAPLIGPVVETLVSEDQDNTEQTDGTSSIPEPWDDITGNKAQLTSSSSEVSSYIQVSTQDQDKLASECGEGQPKVLLSIKQLVLRRGLTLLITLLILIAGITVHVVCPLPEHSVQRQSNFTNDSGNFSTPFSILNITMS
B3 gave a Km ([12]; other: Mate6) of 6.23 ± 1.02 µM, a Vmax ([12]; other: Mate6) of 160 ± 10.8 pmol/mg protein/min and a Km ([13]; other: Mate6) of 11.1 ± 2.12 µM. For the same molecule, the Vmax ([13]; other: Mate6) was 24.8 ± 1.54 pmol/mg protein/min, the Km ([14]; other: Mate6) was 1.73 ± 0.16 µM and the Km ([15]; other: Mate6) was 8.35 ± 1.00 µM. The Vmax ([15]; other: Mate6) was 215 ± 9.72 pmol/mg protein/min.
